Experimental data published in PMC11850817 (Scientific Reports, 2025).

Key:
[1] = target: CDK6/cyclinD3 (Homo sapiens, UniProt Q00534); assay: Radiometric kinase assay; type: biochemical; settings: read-out: Kinase inhibition (%) CDK6/cyclinD3
[2] = test system: AsPC-1 cells; assay: Apoptosis by Hoechst 33,258 staining; type: cell-based, human; settings: AsPC-1, 10 and 30 µM, 48 h
[3] = target: PDGFRB (PDGFRβ) (Homo sapiens, UniProt P09619); assay: Radiometric kinase assay; type: biochemical; settings: read-out: Kinase inhibition (%) PDGFRB (PDGFRβ)
[4] = target: IGF1R (Homo sapiens, UniProt P08069); assay: Radiometric kinase assay; type: biochemical; settings: read-out: Kinase inhibition (%) IGF1R
[5] = target: AKT2 (Homo sapiens, UniProt P31751); assay: Radiometric kinase assay; type: biochemical; settings: read-out: Kinase inhibition (%) AKT2
[6] = target: PDGFRA (PDGFRα) (Homo sapiens, UniProt P16234); assay: Radiometric kinase assay; type: biochemical; settings: for inhibition at 10 µM: read-out: Kinase inhibition (%) PDGFRA (PDGFRα)
[7] = target: FLT4 (VEGFR3) (Homo sapiens, UniProt P35916); assay: Radiometric kinase assay; type: biochemical
[8] = target: CHEK1 (Homo sapiens, UniProt O14757); assay: Radiometric kinase assay; type: biochemical; settings: read-out: Kinase inhibition (%) CHEK1
[9] = target: KIT (c-Kit) (Homo sapiens, UniProt P10721); assay: Radiometric kinase assay; type: biochemical; settings: read-out: Kinase inhibition (%) KIT (c-Kit)
[10] = target: FGFR1 (Homo sapiens, UniProt P11362); assay: Radiometric kinase assay; type: biochemical; settings: read-out: Kinase inhibition (%) FGFR1
[11] = test system: MCF-7; assay: MTT antiproliferative assay, MCF-7; type: cell-based, human; settings: Homo sapiens, MCF7, 72 h, read-out: IC50 MCF-7
[12] = test system: Mia-Paca-2; assay: MTT antiproliferative assay, Mia-Paca-2; type: cell-based, human; settings: Homo sapiens, MIA PaCa-2, 72 h, read-out: IC50 Mia-Paca-2
[13] = test system: HT-29; assay: MTT antiproliferative assay, HT-29; type: cell-based, human; settings: Homo sapiens, HT-29, 72 h, read-out: IC50 HT-29
[14] = target: FLT1 (VEGFR1) (Homo sapiens, UniProt P17948); assay: Radiometric kinase assay; type: biochemical; settings: read-out: Kinase inhibition (%) FLT1 (VEGFR1)
[15] = target: BRAF (Homo sapiens, UniProt P15056); assay: Radiometric kinase assay; type: biochemical; settings: read-out: Kinase inhibition (%) BRAF
[16] = target: WEE1 (Homo sapiens, UniProt P30291); assay: Radiometric kinase assay; type: biochemical; settings: read-out: Kinase inhibition (%) WEE1
[17] = test system: NIH3T3; assay: MTT assay, NIH3T3 non-cancer cell line; type: cell-based; settings: Mus musculus, NIH3T3, 72 h, read-out: IC50 NIH3T3
[18] = target: AKT1 (Homo sapiens, UniProt P31749); assay: Radiometric kinase assay; type: biochemical; settings: read-out: Kinase inhibition (%) AKT1
[19] = target: ALK (Homo sapiens, UniProt Q9UM73); assay: Radiometric kinase assay; type: biochemical; settings: read-out: Kinase inhibition (%) ALK
[20] = target: NTRK3 (TrkC) (Homo sapiens, UniProt Q16288); assay: Radiometric kinase assay; type: biochemical; settings: read-out: Kinase inhibition (%) NTRK3 (TrkC)
[21] = target: MAP2K1 (Homo sapiens, UniProt Q02750); assay: Radiometric kinase assay; type: biochemical; settings: read-out: Kinase inhibition (%) MAP2K1
[22] = target: KDR (VEGFR2) (Homo sapiens, UniProt P35968); assay: Radiometric kinase assay; type: biochemical; settings: read-out: Kinase inhibition (%) KDR (VEGFR2)
[23] = target: ABL1 (Homo sapiens, UniProt P00519); assay: Radiometric kinase assay; type: biochemical; settings: read-out: Kinase inhibition (%) ABL1
[24] = target: CDK2/cyclin A (Homo sapiens, UniProt P24941); assay: Radiometric kinase assay; type: biochemical; settings: for inhibition at 10 µM: read-out: Kinase inhibition (%) CDK2/cyclin A
[25] = target: AURKA (Homo sapiens, UniProt O14965); assay: Radiometric kinase assay; type: biochemical; settings: read-out: Kinase inhibition (%) AURKA
[26] = target: ERBB2 (Her-2) (Homo sapiens, UniProt P04626); assay: Radiometric kinase assay; type: biochemical; settings: read-out: Kinase inhibition (%) ERBB2 (Her-2)
[27] = target: NTRK1 (TrkA) (Homo sapiens, UniProt P04629); assay: Radiometric kinase assay; type: biochemical; settings: read-out: Kinase inhibition (%) NTRK1 (TrkA)
[28] = target: EGFR (Homo sapiens, UniProt P00533); assay: Radiometric kinase assay; type: biochemical; settings: read-out: Kinase inhibition (%) EGFR
[29] = target: PIK3CA (Homo sapiens, UniProt P42336); assay: Radiometric kinase assay; type: biochemical; settings: read-out: Kinase inhibition (%) PIK3CA
[30] = test system: EBC-1; assay: MTT antiproliferative assay, EBC-1; type: cell-based, human; settings: Homo sapiens, EBC-1, 72 h, read-out: IC50 EBC-1
[31] = target: T1, AXL (Homo sapiens, UniProt P30530); assay: Radiometric kinase assay; type: biochemical; settings: read-out: Kinase inhibition (%) AXL
T1 sequence (P30530 26-894): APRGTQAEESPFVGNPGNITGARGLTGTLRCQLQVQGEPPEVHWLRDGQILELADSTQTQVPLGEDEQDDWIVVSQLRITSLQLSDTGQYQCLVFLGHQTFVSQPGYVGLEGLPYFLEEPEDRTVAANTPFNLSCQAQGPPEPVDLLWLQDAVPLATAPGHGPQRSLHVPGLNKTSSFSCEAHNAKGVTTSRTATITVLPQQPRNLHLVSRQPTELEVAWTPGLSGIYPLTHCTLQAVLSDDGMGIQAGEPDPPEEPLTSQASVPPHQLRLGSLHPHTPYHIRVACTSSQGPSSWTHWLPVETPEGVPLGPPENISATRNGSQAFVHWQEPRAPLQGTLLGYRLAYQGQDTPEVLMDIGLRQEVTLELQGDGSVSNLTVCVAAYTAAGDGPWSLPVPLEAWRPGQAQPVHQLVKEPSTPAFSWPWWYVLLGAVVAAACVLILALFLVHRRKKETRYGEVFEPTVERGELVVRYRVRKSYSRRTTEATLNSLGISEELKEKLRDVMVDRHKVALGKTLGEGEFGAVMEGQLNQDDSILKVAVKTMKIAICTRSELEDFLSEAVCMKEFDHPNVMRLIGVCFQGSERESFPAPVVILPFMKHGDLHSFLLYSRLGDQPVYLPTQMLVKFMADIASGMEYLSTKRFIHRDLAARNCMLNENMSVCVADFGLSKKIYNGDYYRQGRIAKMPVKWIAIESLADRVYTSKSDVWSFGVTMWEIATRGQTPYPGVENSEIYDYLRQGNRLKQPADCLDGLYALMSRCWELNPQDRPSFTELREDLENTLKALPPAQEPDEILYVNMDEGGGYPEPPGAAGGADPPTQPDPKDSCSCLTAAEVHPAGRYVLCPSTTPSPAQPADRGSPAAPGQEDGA

[32] = target: ROS1 (Homo sapiens, UniProt P08922); assay: Radiometric kinase assay; type: biochemical; settings: read-out: Kinase inhibition (%) ROS1
[33] = test system: AsPC-1 cells; assay: Cell cycle test, RNase/PI flow cytometry; type: cell-based, human; settings: AsPC-1, 3, 10, 30, 50 µM, 48 h
[34] = test system: AsPC-1; assay: MTT antiproliferative assay, AsPC-1; type: cell-based, human; settings: Homo sapiens, ASPC1, 72 h, read-out: IC50 AsPC-1
[35] = target: FLT3 (Homo sapiens, UniProt P36888); assay: Radiometric kinase assay; type: biochemical; settings: read-out: Kinase inhibition (%) FLT3
[36] = target: MET (Homo sapiens, UniProt P08581); assay: Radiometric kinase assay; type: biochemical; settings: read-out: Kinase inhibition (%) MET
[37] = target: NTRK2 (TrkB) (Homo sapiens, UniProt Q16620); assay: Radiometric kinase assay; type: biochemical; settings: read-out: Kinase inhibition (%) NTRK2 (TrkB)

Sequence of PDGFRA (PDGFRα) (P16234 24-1089): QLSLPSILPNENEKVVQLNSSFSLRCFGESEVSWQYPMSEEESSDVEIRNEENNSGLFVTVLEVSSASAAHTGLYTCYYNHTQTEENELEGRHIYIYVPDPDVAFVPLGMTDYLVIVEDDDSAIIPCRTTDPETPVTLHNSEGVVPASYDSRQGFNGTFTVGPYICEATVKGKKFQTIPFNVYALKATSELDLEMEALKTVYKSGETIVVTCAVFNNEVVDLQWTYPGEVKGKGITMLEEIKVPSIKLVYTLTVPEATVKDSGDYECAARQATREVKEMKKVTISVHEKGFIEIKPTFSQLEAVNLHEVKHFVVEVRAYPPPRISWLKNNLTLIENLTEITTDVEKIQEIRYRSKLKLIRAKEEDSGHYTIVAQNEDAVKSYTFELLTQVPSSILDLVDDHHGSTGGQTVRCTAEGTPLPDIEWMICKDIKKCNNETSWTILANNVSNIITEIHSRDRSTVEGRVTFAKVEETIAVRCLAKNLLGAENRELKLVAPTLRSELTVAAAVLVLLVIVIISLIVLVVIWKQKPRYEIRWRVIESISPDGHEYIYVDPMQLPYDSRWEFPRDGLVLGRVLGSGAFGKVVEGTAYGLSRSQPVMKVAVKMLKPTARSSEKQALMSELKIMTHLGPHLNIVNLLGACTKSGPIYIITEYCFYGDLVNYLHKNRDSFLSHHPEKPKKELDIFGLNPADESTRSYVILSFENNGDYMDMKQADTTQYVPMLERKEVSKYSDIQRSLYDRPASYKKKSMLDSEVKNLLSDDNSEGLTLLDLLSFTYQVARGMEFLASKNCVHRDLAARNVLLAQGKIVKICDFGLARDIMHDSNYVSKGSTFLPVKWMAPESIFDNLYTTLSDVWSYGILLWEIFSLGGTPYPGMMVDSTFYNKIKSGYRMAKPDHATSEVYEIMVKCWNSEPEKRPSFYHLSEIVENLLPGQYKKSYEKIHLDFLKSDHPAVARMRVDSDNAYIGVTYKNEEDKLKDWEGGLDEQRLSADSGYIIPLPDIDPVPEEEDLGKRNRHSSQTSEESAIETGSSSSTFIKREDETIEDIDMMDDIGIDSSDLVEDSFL
Sequence of KDR (VEGFR2) (P35968 20-1356): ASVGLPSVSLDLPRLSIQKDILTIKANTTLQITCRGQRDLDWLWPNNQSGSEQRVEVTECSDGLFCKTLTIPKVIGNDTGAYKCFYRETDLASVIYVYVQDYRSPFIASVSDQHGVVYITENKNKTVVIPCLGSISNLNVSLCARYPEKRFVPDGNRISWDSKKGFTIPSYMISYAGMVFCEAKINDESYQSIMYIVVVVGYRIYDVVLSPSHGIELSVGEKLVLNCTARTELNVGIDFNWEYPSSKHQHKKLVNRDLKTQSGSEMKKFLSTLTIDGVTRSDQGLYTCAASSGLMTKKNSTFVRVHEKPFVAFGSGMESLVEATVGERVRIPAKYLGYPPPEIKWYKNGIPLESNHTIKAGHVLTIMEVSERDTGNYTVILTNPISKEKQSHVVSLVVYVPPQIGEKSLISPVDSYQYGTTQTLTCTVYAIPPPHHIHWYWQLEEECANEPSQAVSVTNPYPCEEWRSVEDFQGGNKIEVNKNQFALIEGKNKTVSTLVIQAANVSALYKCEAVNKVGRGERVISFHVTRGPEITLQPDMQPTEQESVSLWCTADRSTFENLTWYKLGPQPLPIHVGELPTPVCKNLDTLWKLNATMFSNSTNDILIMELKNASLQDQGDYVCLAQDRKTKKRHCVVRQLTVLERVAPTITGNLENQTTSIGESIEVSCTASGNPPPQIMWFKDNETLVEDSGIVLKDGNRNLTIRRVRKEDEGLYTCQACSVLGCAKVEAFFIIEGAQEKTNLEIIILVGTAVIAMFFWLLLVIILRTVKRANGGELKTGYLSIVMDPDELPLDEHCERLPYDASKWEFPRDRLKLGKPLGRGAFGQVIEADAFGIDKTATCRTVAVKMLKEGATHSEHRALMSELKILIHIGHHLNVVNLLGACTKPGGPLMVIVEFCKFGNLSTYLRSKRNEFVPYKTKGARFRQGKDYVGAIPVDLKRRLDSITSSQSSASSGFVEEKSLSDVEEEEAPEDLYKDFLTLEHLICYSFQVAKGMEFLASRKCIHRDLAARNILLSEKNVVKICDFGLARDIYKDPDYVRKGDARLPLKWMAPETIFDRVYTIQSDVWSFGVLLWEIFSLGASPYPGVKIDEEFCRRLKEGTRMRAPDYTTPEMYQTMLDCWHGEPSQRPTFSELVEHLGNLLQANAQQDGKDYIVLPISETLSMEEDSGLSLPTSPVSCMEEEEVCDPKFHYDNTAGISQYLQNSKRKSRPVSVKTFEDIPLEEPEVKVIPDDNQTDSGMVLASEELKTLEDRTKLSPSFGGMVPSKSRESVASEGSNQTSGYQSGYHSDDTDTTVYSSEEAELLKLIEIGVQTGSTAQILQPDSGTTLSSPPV
Sequence of EGFR (P00533 25-1210): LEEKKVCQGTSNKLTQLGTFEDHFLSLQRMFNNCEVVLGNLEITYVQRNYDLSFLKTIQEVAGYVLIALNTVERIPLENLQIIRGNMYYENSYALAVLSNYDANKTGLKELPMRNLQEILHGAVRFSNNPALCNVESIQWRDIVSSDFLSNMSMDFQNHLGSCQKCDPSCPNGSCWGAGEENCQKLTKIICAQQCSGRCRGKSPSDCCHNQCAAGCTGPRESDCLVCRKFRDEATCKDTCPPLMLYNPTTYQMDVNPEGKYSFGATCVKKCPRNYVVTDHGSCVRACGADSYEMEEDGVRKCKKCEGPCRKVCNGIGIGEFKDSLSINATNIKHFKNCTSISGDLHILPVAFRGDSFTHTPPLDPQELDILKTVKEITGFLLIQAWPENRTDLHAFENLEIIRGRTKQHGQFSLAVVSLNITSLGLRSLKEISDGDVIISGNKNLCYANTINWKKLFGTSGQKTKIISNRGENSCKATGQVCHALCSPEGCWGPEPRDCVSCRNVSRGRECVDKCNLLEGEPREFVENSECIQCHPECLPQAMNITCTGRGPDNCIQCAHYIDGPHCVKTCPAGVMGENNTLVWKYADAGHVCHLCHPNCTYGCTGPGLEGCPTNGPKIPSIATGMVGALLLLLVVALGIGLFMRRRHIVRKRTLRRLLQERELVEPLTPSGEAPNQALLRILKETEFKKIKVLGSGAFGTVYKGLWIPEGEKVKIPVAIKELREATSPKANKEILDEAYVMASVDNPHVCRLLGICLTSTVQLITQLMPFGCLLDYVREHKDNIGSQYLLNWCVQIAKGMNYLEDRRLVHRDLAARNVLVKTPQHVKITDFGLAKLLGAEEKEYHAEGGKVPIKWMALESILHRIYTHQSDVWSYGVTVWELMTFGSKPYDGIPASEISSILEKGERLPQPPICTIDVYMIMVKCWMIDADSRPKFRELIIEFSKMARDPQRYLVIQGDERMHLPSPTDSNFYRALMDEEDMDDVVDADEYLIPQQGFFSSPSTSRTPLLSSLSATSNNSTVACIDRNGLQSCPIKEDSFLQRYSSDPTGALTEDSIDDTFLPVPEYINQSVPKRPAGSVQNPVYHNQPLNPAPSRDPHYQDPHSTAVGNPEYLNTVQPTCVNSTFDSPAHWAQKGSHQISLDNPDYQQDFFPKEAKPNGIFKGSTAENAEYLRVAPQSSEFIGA
Sequence of FLT1 (VEGFR1) (P17948 27-1338): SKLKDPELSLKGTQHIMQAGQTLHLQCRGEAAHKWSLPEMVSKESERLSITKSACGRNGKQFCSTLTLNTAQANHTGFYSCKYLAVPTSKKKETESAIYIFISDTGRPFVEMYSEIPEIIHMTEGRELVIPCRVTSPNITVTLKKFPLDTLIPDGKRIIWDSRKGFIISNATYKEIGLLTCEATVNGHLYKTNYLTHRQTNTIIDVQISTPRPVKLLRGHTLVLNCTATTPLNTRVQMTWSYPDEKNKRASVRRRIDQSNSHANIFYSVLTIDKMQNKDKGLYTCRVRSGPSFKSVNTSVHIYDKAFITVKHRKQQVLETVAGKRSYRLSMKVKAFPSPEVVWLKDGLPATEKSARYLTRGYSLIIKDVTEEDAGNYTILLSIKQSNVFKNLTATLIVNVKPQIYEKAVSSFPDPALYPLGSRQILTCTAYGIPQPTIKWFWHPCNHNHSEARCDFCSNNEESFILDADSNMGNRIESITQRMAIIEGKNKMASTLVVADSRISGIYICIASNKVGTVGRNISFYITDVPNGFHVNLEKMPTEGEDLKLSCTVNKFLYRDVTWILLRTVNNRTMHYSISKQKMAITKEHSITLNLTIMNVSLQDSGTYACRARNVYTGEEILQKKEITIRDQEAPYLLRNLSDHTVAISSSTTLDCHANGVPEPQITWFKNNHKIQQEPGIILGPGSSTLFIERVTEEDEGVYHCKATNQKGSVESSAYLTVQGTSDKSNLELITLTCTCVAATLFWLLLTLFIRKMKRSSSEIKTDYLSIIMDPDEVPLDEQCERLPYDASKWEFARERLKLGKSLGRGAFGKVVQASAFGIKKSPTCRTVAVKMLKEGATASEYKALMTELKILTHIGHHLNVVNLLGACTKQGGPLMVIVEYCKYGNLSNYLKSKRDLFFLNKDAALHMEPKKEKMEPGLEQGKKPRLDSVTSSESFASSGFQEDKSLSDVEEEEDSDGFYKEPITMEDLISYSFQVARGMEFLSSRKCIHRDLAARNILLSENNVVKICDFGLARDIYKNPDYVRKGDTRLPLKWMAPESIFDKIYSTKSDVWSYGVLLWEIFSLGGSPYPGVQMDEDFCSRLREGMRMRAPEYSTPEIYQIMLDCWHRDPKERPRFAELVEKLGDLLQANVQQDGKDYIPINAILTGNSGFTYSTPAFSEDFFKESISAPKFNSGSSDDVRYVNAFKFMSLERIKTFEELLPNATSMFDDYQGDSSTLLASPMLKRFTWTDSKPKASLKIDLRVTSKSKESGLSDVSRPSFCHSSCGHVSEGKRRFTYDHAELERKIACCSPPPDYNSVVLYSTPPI

## O=C1C=C(Nc2ccc(OCc3cn(Cc4ccccc4)nn3)cc2)C(=O)c2ccccc21 [Compound 4a, 2-((4-((1-Benzyl-1H-1,2,3-triazol-4-yl)methoxy)phenyl)amino)naphthalene-1,4-dione]
[1]
  inhibition at 10 µM: 9%
[2]
  Apoptosis induction (nuclear morphology): characteristic features of apoptosis including densely packed chromatin within the nucleus as well as nuclear fragmentation
[3]
  inhibition at 10 µM: 16%
[4]
  inhibition at 10 µM: -3%
[5]
  inhibition at 10 µM: 25%
[6]
  IC50: 0.629 ± 0.087 µM
  inhibition at 10 µM: 71%
[7]
  IC50: 0.554 ± 0.002 µM
[7]; read-out: Kinase inhibition (%) FLT4 (VEGFR3)
  inhibition at 10 µM: 87%
[8]
  inhibition at 10 µM: -20%
[9]
  inhibition at 10 µM: 1%
[10]
  inhibition at 10 µM: 14%
[11]
  IC50: > 100 µM
[12]
  IC50: > 100 µM
[13]
  IC50: 21.9 ± 3.9 µM
[14]
  inhibition at 10 µM: -16%
[15]
  inhibition at 10 µM: 3%
[16]
  inhibition at 10 µM: 6%
[17]
  IC50: 85.5 ± 19.6 µM
[18]
  inhibition at 10 µM: 19%
[19]
  inhibition at 10 µM: 16%
[20]
  inhibition at 10 µM: 40%
[21]
  inhibition at 10 µM: 9%
[22]
  inhibition at 10 µM: 20%
[23]
  inhibition at 10 µM: 7%
[24]
  IC50: 1.67 ± 0.115 µM
  inhibition at 10 µM: 73%
[25]
  inhibition at 10 µM: -3%
[26]
  inhibition at 10 µM: 3%
[27]
  inhibition at 10 µM: 43%
[28]
  inhibition at 10 µM: -5%
[29]
  inhibition at 10 µM: 14%
[30]
  IC50: 5.1 ± 1.2 µM
[31]
  inhibition at 10 µM: 14%
[32]
  inhibition at 10 µM: -6%
[33]
  Effect on cell cycle distribution (S and G2/M phases): dose-dependently increased the number of cells in the S phase and simultaneously reduced the cells in G2/M phase
[34]
  IC50: 23.5 ± 5.8 µM

## O=C1C=C(Nc2ccc(OCc3cn(Cc4ccc(Br)cc4)nn3)cc2)C(=O)c2ccccc21 [Compound 4b, 2-((4-((1-(4-Bromobenzyl)−1H-1,2,3-triazol-4 yl)methoxy)phenyl)amino) naphthalene-1,4-dione]
[3]
  inhibition at 10 µM: 17%
[5]
  inhibition at 10 µM: -10%
[6]
  inhibition at 10 µM: 37%
[9]
  inhibition at 10 µM: -9%
[10]
  inhibition at 10 µM: 1%
[11]
  IC50: > 100 µM
[12]
  IC50: 1.3 ± 0.4 µM
[13]
  IC50: 56.9 ± 4.3 µM
[14]
  inhibition at 10 µM: -17%
[35]
  inhibition at 10 µM: -3%
[17]
  IC50: 50.9 ± 8.8 µM
[18]
  inhibition at 10 µM: 9%
[19]
  inhibition at 10 µM: 2%
[22]
  inhibition at 10 µM: -19%
[23]
  inhibition at 10 µM: 2%
[24]
  inhibition at 10 µM: 32%
[36]
  inhibition at 10 µM: -8%
[27]
  inhibition at 10 µM: 4%
[28]
  inhibition at 10 µM: -9%
[30]
  IC50: 2 ± 1.2 µM
[31]
  inhibition at 10 µM: 5%
[37]
  inhibition at 10 µM: 13%
[34]
  IC50: 30.7 ± 2.2 µM
